Measured values from patent US20170057954A1, “SUBSTITUTED IMIDAZO[1,2-A]PYRIDINECARBOXAMIDES AND THEIR USE” (Bayer Pharma Aktiengesellschaft, priority 2014, published 2017).

Test system: recombinant guanylate cyclase reporter cell line
Test: Effect on a recombinant guanylate cyclase reporter cell line
Format: cell-based
Details: in some cases mean values for individual determinations, read-out: MEC (minimum effective concentration)
Method: B-2. Effect on a Recombinant Guanylate Cyclase Reporter Cell Line
The cellular activity of the compounds according to the invention is determined using a recombinant guanylate cyclase reporter cell line, as described in F. Wunder et al., Anal. Biochem. 339, 104-112 (2005).
Representative MEC values (MEC=minimum effective concentration) for the compounds of the invention are shown in the table below (in some cases as mean values for individual determinations): […]

| Compound | minimal effective concentration |
| --- | --- |
| Cc1cc(OCc2c(F)cccc2F)c2nc(C)c(C(=O)NNC3CCCCC3)n2c1 [Example 74] | 3 µM |
| Cc1cc(OCc2c(F)cccc2F)c2nc(C)c(C(=O)NNC(=O)CN)n2c1 [Example 75, N′-(Aminoacetyl)-8-[(2,6-difluoroenzyl)oxy]-2,6-dimethylimidazo[1,2-a]pyridine-3-carbohydrazide] | 1 µM |
| Cc1cc(OCc2c(F)cccc2F)c2nc(C)c(C(=O)NNC(=O)CN3CCOCC3)n2c1 [Example 76, 8-[(2,6-Difluorobenzyl)oxy]-2,6-dimethyl-N′-(morpholin-4-ylacetyl)imidazo[1,2-a]pyridine-3-carbohydrazide] | 0.3 µM |
| Cc1cc(OCc2c(F)cccc2F)c2nc(C)c(C(=O)NOCC3CC3)n2c1 [Example 77, N-(Cyclopropylmethoxy)-8[(2,6-difluorobenzyl)oxy]-2,6-dimethylimidazo[1,2-a]pyridine-3-carboxamide] | 0.3 µM |
| Cc1cc(OCc2c(F)cccc2F)c2nc(C)c(C(=O)NN3CCC(C(F)(F)F)C3)n2c1 (stereo not shown) [Example 79, 8-[(2,6-Difluorobenzyl)oxy]-2,6-dimethyl-N-[3-(trifluoromethyl)pyrrolidin-1-yl]imidazo[1,2-a]pyridine-3-carboxamide] | 0.1 µM |
| Cc1cc(OCc2c(F)cccc2F)c2nc(C)c(C(=O)NNC3CCS(=O)(=O)CC3)n2c1 [Example 80, 8-[(2,6-Difluorobenzyl)oxy]-N′-(1,1-dioxidotetrahydro-2H-thiopyran-4-yl)-2,6-dimethylimidazo[1,2-a]pyridine-3-carbohydrazide] | 2 µM |
| Cc1cc(OCc2c(F)cccc2F)c2nc(C)c(C(=O)NOCC(F)(F)F)n2c1 [Example 81, 8-[(2,6-Difluorobenzyl)oxy]-2,6-dimethyl-N-(2,2,2-trifluoroethoxy)imidazo[1,2-a]pyridine-3-carboxamide] | 0.65 µM |
